Measurements published in patent US6080542A, “Plant peptide transport gene” (priority 1997, dated 2000).
Where a SMILES comes first, the peptide text is derived from it. Where no end group is shown, it is not given here. Eth = ethionine

Assays:
PB1X-9B (pJP9) [1] = assay: Growth on peptides, mutant transformed with yeast peptide transport gene; assay type: cell-based, Saccharomyces cerevisiae; conditions: for growth on peptide: PBIX-9B (pJP9), 80 μM peptide in SC medium, 30° C., 72 hrs
Experimental: (§1) In addition, untransformed PB1X-9B, PB1X-9B transformed with plasmid pJP9 encoding the above-described yeast peptide transport gene, PB1X-2AΔ and PB1X-2A, the ptr2^+ parental strain to PB1X-2AΔ strain, were also assayed. Each strain was grown overnight in SC media plus uracil (non-transformed) or minus uracil (transformed) plus amino acids to stationary phase and harvested by centrifugation. Cells were then washed twice with sterile dH2 O and resuspended at 5×10^6 cells/ml. 5 μl of each suspension was applied as a small spot to a 2 ml volume of solid media in a 24 well plate. All peptides were suspended in sterile, deionized water and added to an equal volume of SC medium plus the appropriate amino acids and uracil when required. The medium for each assay thus consisted of SC medium plus or minus uracil supplemented with 80 μM of a specific peptide and auxotrophic requirements minus the amino acid components of the added peptide. The plates were incubated at 30° C. for 72 hrs. and then scored for growth.

PB1X-9B (pPTF4) [2] = assay: Growth on peptides, mutant transformed with plant gene ATPTR2A; assay type: cell-based, Saccharomyces cerevisiae; conditions: PBIX-9B (pPTF4); 80 μM peptide in SC medium, 30° C., 72 hrs
Experimental: as §1

PB1X-9B [3] = assay: Growth on peptides as amino acid source, peptide transport mutant; assay type: cell-based, Saccharomyces cerevisiae; conditions: PBIX-9B; 80 μM peptide in SC medium, 30° C., 72 hrs
Experimental: as §1

ATPTR2Ap = assay: Uptake of L-leucyl-L-[3H]leucine and competition, PB1X-9B[pPTF4]
Experimental: The kinetics of ATPTR2A-mediated transport of peptides in yeast was evaluated by transforming pPTF4 into the S. cerevisiae peptide transport mutant, PB1X-9B and measuring the uptake of tritiated Leu-Leu dipeptide.
L-leucyl-L [^3 H]leucine trifluoroacetic acid (TFA) was synthesized by standard solution phase techniques (Naider, F. et al., J. Biol. Chem. 249:9-20 (1974)). Uptake of L-leucyl-L-[H]leucine was performed as by Island, M. D. et al (J. Bacteriol. 169:2132-2136 (1987)), with the following modifications. Cells were grown to late log phase (26×10^7 cells/ml) overnight in SC with 2% glucose, 1 mg/ml allantoin plus amino acids to supplement auxotrophic markers. To induce peptide transport. 5-15 ml from this culture was added to 100 ml fresh medium such that the density was 3.0×10^6 cells/ml. This culture was allowed to grow (approx. 2 hrs.) to a density of 6.0×10^6 cells/ml and then harvested by centrifugation. The pelleted cells were washed twice with 10 ml cold dH2 O and suspended in cold 2% glucose to a final concentration of 2×10^8 cells/ml and incubated at 30° C. for 15 min. 500 μl of cells were then added to an equal volume of reaction mixture (30° C.) and incubated at 30°-C. At 20, 40, 60, 90, and 120 sec. intervals, 190 μl portions were removed, filtered over filters (pore size, 0.45 μm; GN-6; Gelman Sciences, Inc., Ann Arbor, Mich.) and washed 2 times with 5 ml cold, sterile dH2 O and once with 5 ml dH2 O at room temperatures. Filters were placed in scintillation vials with 5 ml of Budget-Solve scintillation cocktail (Research Products International Corp., Mount Prospect, Ill.) and counted (liquid scintillation counter; LS-7000; Beckman Instruments, Inc., Fullerton, Calif.). The final concentration of the components in the uptake assay was 1% glucose, 40 mM sodium citrate-potassium phosphate buffer (pH 5.5), and 1.5×105 M L-leucyl-L-[^3 H]leucine (specific activity, 10 mCi/mmole). Uptake is expressed as nanomoles per mg dry weight.

A. thaliana seedlings = assay: Root assay, toxic peptide plus competitor peptide; assay type: in vivo, Arabidopsis thaliana
Experimental: Approximately 15 A. thaliana seeds were placed in a row at one end of 10 cm plate containing 20 ml of Arabidopsis growth media (Kranz and Kirchheim 1987). The seeds were incubated 3-5 days in the light with the plate set in an upright position. When the roots were approximately 1-2 cm long, sterile paper filter disks were placed immediately in front of the root tips on the right and left side of the plate 2 cm from the edge of the plate. A line was drawn across the plate using the top of the disks as a guide marking zero growth. 5 μl of toxic amino acid analog, toxic peptide, or toxic peptide plus competitor was added to one disk while H2 O was place on the other disk. The plates were incubated for an additional 3-5 days. The average length of the roots was measured from the line and the results expressed as a percentage of control root growth.

PB1X-9B [4] = assay: Toxic peptide disk assay, peptide transport mutant; assay type: cell-based, Saccharomyces cerevisiae; conditions: for diameter of zone of inhibition: disk with 0.38 μmoles, lawn of 5×10^6 cells, 30° C., 1 to 2 days, mean ± standard error
Experimental: (§2) Since ptr mutants are deficient in peptide transport, they are unable to take up toxic peptides. This inability renders such mutants resistant to the toxic effect of the peptides. In order to determine whether the polynucleotides of the present invention could restore toxic peptide sensitivity to ptr2 mutants, the sensitivity of plasmid-transformed cells was determined. Sensitivity to toxic amino acids and peptides was measured as described by Island, M. D. et al. (J. Bacteriol. 169:2132-2136 (1987)). Briefly, a filter disk containing 0.38 μmoles of the toxic compound was placed on a lawn containing 5×10^6 cells and the plate incubated at 30° C. for 1 to 2 days. Resulting halos were measured across their diameter. The toxic dipeptides Leu-Eth, Ala-Eth, Leu-F-Phe and Oxalysine were synthesized by standard solution phase techniques (Naider, F. et al., J. Biol. Chem. 249:9-20 (1974). The results of this experiment are shown in Table 2 (values are the mean of the diameters of the observed zone of inhibition in millimeters±standard error of the mean of at least two independent experiments).

S288C = assay: Toxic peptide disk assay, wild type; assay type: cell-based, Saccharomyces cerevisiae; conditions: disk with 0.38 μmoles, lawn of 5×10^6 cells, 30° C., 1 to 2 days, mean ± standard error
Experimental: as §2

PB1X-9B (pJP9) [5] = assay: Toxic peptide disk assay, mutant with yeast peptide transport gene; assay type: cell-based, Saccharomyces cerevisiae; conditions: disk with 0.38 μmoles, lawn of 5×10^6 cells, 30° C., 1 to 2 days, mean ± standard error
Experimental: as §2

PB1X-9B (pPTF4) [6] = assay: Toxic peptide disk assay, mutant with plant gene ATPTR2A; assay type: cell-based, Saccharomyces cerevisiae; conditions: for diameter of zone of inhibition: disk with 0.38 μmoles, lawn of 5×10^6 cells, 30° C., 1 to 2 days, mean ± standard error
Experimental: as §2

[7] = tested on: S. cerevisiae strains tested; assay: Toxic peptide disk assay, statements covering several strains; assay type: cell-based, Saccharomyces cerevisiae; conditions: for sensitivity to toxic peptide: all strains tested
Experimental: as §2

[8] = PB1X-9B[pPTF4], pH 5.5, dileucine and leucine at 100-fold

Compound | growth on peptide (PB1X-9B (pJP9) [1]) | growth on peptide (PB1X-9B (pPTF4) [2]) | growth on peptide (PB1X-9B [3]) | diameter of zone of inhibition (PB1X-9B [4]) | diameter of zone of inhibition (S288C) | diameter of zone of inhibition (PB1X-9B (pJP9) [5]) | diameter of zone of inhibition (PB1X-9B (pPTF4) [6]) | sensitivity to toxic peptide [7] | other results
CC(C)C[C@H](NC(=O)[C@@H](N)Cc1c[nH]cn1)C(=O)O [His-Leu] (H-His-Leu-OH) | + | + | - |  |  |  |  |  | 
CC(C)C[C@H](NC(=O)[C@@H](N)CC(C)C)C(=O)O [Leu-Leu, L-leucyl-L-leucine] | + | + | - |  |  |  |  |  | competition for uptake of [3H]-dileucine (ATPTR2Ap; [8]): inhibited
CC(C)C[C@H](NC(=O)[C@@H](N)CCCCN)C(=O)O [Lys-Leu, L-lysyl-L-leucine] (H-Lys-Leu-OH) | + | + | - |  |  |  |  |  | 
CSCC[C@H](N)C(=O)O [Met] |  |  |  |  |  |  |  |  | reversal of toxicity by competitor (in words) (A. thaliana seedlings; toxic peptide Ala-Eth): unable to reverse the inhibition; root growth with toxic peptide plus competitor (A. thaliana seedlings; toxic peptide Ala-Eth): 0 percentage of control root gro; reversal of toxicity by competitor (in words) (A. thaliana seedlings; toxic peptide Leu-Eth): unable to reverse the inhibition; root growth with toxic peptide plus competitor (A. thaliana seedlings; toxic peptide Leu-Eth): 0 percentage of control root gro
CC(C)C[C@H](N)C(=O)O [leucine] |  |  |  |  |  |  |  |  | competition for uptake of [3H]-dileucine (ATPTR2Ap; 3 h): no effect; competition for uptake of [3H]-dileucine (ATPTR2Ap; [8]): did not reduce uptake
Ala-Ala-Leu: tripeptide growth substrate (AAL) | + | + | - |  |  |  |  |  | 
Gly-Leu-Gly-Leu: SEQ ID NO:6 (GLGL) | - | - | - |  |  |  |  |  | growth on peptide (in words) (PB1X-9B (pJP9) [1]; PB1X-9B transformed with pJP9): showed growth on all peptides except
Lys-Leu-Ala-Eth: ethionine-containing peptide of four residues |  |  |  | 0 millimeters | 0 millimeters | 0 millimeters | 0 millimeters | None of the strains tested were sensitive | 
Lys-Leu-Leu-Ala-Eth: ethionine-containing peptide, SEQ ID NO:13 (KLLA-Eth) |  |  |  | 0 millimeters | 0 millimeters | 0 millimeters | 0 millimeters | None of the strains tested were sensitive | 
Lys-Leu-Leu-Eth: ethionine-containing peptide of four residues |  |  |  | 0 millimeters | 0 millimeters | 0 millimeters | 0 millimeters | None of the strains tested were sensitive | 
Lys-Leu-Leu-Leu-Eth: ethionine-containing peptide, SEQ ID NO:14 (KLLL-Eth) |  |  |  | 0 millimeters | 0 millimeters | 0 millimeters | 0 millimeters | None of the strains tested were sensitive | 
fluorophenylalanine [F-Phe] |  |  |  | 14.0 ± 1.0 millimeters | 25.0 ± 4.0 millimeters | 20.0 ± 0.0 millimeters | 19.5 ± 0.5 millimeters |  | sensitivity or resistance to toxic compound (PB1X-9B [4]): sensitive; sensitivity or resistance to toxic compound (PB1X-9B (pPTF4) [6]): sensitive; sensitivity to toxic compound ([7]; wild type (S288C) and transformants): less sensitive
